The nature of assay [1]: Peptide stability to shampoo washes, fluorescence of dye-labeled peptide on hair (Example 9). The assay is classed as binding. To be noted: Alexa Fluor 647 labeled peptide 1 mg/mL; virgin (FIG. 9a) and bleached (FIG. 9b) hair. As for the experimental part:
To separate solutions of 500 μL of DI water was added 1 mg of one of the peptides corresponding to SEQ ID NOs. 1 and 2-17. Then, a solution of 84 mg of sodium bicarbonate in 1 mL of DI water was prepared, and 12 μL of this solution was added to each peptide solution. Immediately prior to conjugation, 5 mg of Alexa Fluor 647 NHS ester (Thermo Fisher Scientific) dye molecule was dissolved in 500 μL of DMSO, and 15 μL of this solution was added to each peptide solution. After the dye was added, the solution was incubated at 4° C. in the dark for 16 hours. Removal of unbound dye molecules was carried out using a PD MiniTrap G-10 column (Cytiva) using DI water as the elutant. Fractions containing dye-labeled peptide were pooled and diluted to final peptide concentrations of 1 mg/mL.
Hair samples were then treated according to Example 8, except that during treatment with peptide, hair was treated with a single dye-labeled peptide corresponding to SEQ ID NOs. 1 and 2-17. For each set of conditions, three separate straightening protocols were performed.
Fluorescence images were collected on a EVOS M7000 Imaging System (Thermo Fisher Scientific) using a Cy5 filter set. Images were collected using a 0.1 second exposure time at a light intensity of 0.0023. Following fluorescence measurements, hair samples were then washed with shampoo an additional 9 times, towel dried, and fluorescently imaged again.
Image files were processed as 16-bit grayscale images using ImageJ software. […] The average and standard deviation of fluorescence intensity in the remaining regions (corresponding to hair strands containing fluorescently labeled peptides) was then directly calculated.

Assay [2] can be described thus: Hair straightening, treatment with heat only (Example 1). To be noted: 1 mg/mL peptide; after 10 shampoo wash/dry cycles. As to the method:
Tresses of curly Brazilian hair were cut into ½ inch wide samples. The tresses were then washed with shampoo and allowed to air dry. The hair was straightened using a flat iron at 460° F. Once the hair was visibly straight, the hair was wrapped tightly in aluminum foil. A flat iron was applied to a section of the wrapped hair by holding the flat iron to the section for 10 seconds. This process was repeated until all sections of the hair were flat ironed.
Six individual solutions of each peptide corresponding to SEQ ID NO. 3 through SEQ ID NO 8 were dissolved in de-ionized (“DI”) water at a concentration of about 1 milligram per milliliter (“mg/mL”) and then applied to separate hair samples until the hair sample was saturated. The saturated hair was allowed to sit for 1 hour at 37° C. The hair was then blow dried under medium heat while gently pulling the hair into a straight shape. A flat iron was then applied to the hair at 400° F.
The straightened hair was washed with shampoo and allowed to air dry, and this washing/drying procedure was repeated a total of 10 times. […] There was little identifiable difference in efficacy among the six designed keratin binding peptides, although peptides corresponding to SEQ ID NO. 5 SEQ ID NO. 6, SEQ ID NO. 7 and SEQ ID NO. […] 3 and SEQ ID NO.4.

The nature of assay [3]: Hair straightening, treatment with lye and hydrogen peroxide (Example 2). Conditions: 1 mg/mL peptide; after 10 shampoo wash/dry cycles. As to the method:
(§1) Tresses of curly Brazilian hair were cut into ½ inch wide samples. The tresses were then washed with shampoo and allowed to air dry. The hair then soaked in a solution of sodium hydroxide pH 12 for 30 minutes at room temperature. After this time, the hair was rinsed with DI water. The hair was then blow dried under medium heat while gently pulling the hair into a straight shape. A flat iron was then applied to the hair at 400° F.
Six individual solutions of each designed keratin binding peptide corresponding to SEQ ID NO. 3 through SEQ ID NO. 8 were dissolved in DI water at a concentration of 1 mg/ml and then applied to individual hair samples until the hair sample was saturated, and the hair sample was allowed to sit for 30 minutes at room temperature. The hair sample was then blow dried under medium heat while gently pulling the hair into a straight shape. A flat iron was then applied to the hair at 400° F.
L'Oreal® Oreor Creme 40 volume developer was then applied to the hair samples until the hair sample was saturated, and then allowed to sit for 30 minutes at room temperature. The hair samples were then rinsed with DI water.
Each straightened hair sample was washed with shampoo and allowed to air dry, and this washing/drying procedure was repeated a total of 10 times. […] There was little identifiable difference in efficacy among the six peptides, although peptides corresponding to SEQ ID NO. 5, SEQ ID NO. 6, SEQ ID NO. 7 and SEQ ID NO. […] 3 and SEQ ID NO.4.

The nature of assay [4]: Hair straightening, treatment with lye and glucose oxidase (Example 3). Conditions: 1 mg/mL peptide, 30 minutes; NaOH pH 12, glucose oxidase/glucose fixation; after 10 shampoo wash/dry cycles; only slight waves remained. As for the experimental part: as §1
A solution of the peptide corresponding to SEQ ID. NO. 8 in DI water at a concentration of 1 mg/mL was then applied to hair sample until the hair sample was saturated, and the hair was allowed to sit for 30 minutes at room temperature. The hair was then blow dried under medium heat while gently pulling the hair into a straight shape. A flat iron was then applied to the hair at 400° F.
(§2) A solution of glucose oxidase (2 mg/mL) and glucose (18 mg/mL) in 50 mM sodium phosphate buffer pH 5.8 was then applied to the hair until the hair was saturated, and the hair was allowed to sit for 30 minutes at room temperature. The hair was then rinsed with DI water.
(§3) The straightened hair was washed with shampoo and allowed to air dry, and this washing/drying procedure was repeated a total of 10 times.

A short description of assay [5]: Hair straightening, treatment with glutathione reductase and hydrogen peroxide (Example 4). Conditions: 1 mg/mL peptide, 30 minutes; glutathione reductase/glutathione/NADP relaxation, 40 volume developer fixation; after 10 shampoo wash/dry cycles; only slight waves remained. As for the experimental part:
Tresses of curly Brazilian hair were cut into ½ inch wide samples. The tresses were then washed with shampoo and allowed to air dry. The hair then soaked in a solution of glutathione reductase (0.01 mg/mL), glutathione (100 mg/mL), and nicotinamide adenine dinucleotide phosphate (0.083 mg/mL) in 50 mM sodium phosphate buffer pH 8 for 30 minutes at room temperature. After this time, the hair was rinsed with DI water. The hair was then blow dried under medium heat while gently pulling the hair into a straight shape. A flat iron was then applied to the hair at 400° F.
A solution of a peptide corresponding to SEQ ID NO.8 in DI water at a concentration of 1 mg/mL was then applied to har until the hair was saturated, and the hair was allowed to sit for 30 minutes at room temperature. The hair was then blow dried under medium heat while gently pulling the hair into a straight shape. A flat iron was then applied to the hair at 400° F.
L'Oreal® Oreor Creme 40 volume developer was then applied to the hair until the hair was saturated, and the hair was allowed to sit for 30 minutes at room temperature. The hair was then rinsed with DI water.
as §3

A short description of assay [6]: Hair straightening, treatment with glutathione and glucose oxidase (Example 5). To be noted: 1 mg/mL peptide, 30 minutes; glutathione pH 9 relaxation, glucose oxidase/glucose fixation; after 10 shampoo wash/dry cycles; only slight waves remained. As for the experimental part:
Tresses of curly Brazilian hair were cut into ½ inch wide samples. The tresses were then washed with shampoo and allowed to air dry. The hair then soaked in a solution of glutathione (100 mg/mL) in sodium hydroxide pH 9 for 30 minutes at room temperature. After this time, the hair was rinsed with DI water. The hair was then blow dried under medium heat while gently pulling the hair into a straight shape. A flat iron was then applied to the hair at 400° F.
A solution of the peptide corresponding to SEQ ID NO.8 in DI water at a concentration of 1 mg/mL was then applied to hair until the hair was saturated, and the hair was allowed to sit for 30 minutes at room temperature. The hair was then blow dried under medium heat while gently pulling the hair into a straight shape. A flat iron was then applied to the hair at 400° F.
as §2, §3

A short description of assay [7]: Hair straightening, treatment with ammonium thioglycolate and hydrogen peroxide (Example 6). Conditions: 1 mg/mL peptide, 30 minutes; ammonium thioglycolate 10% v/v pH 10, hydrogen peroxide 2% v/v; after 30 shampoo wash/dry cycles; treated samples with and without peptide. As to the method:
Tresses of curly Brazilian hair were cut into ½ inch wide samples. The tresses were then washed with shampoo and allowed to air dry. The hair then soaked in a solution of ammonium thioglycolate (10% v/v) in sodium hydroxide pH 10 for 30 minutes at room temperature. After this time, the hair was rinsed with DI water. The hair was then blow dried under medium heat while gently pulling the hair into a straight shape. A flat iron was then applied to the hair at 400° F.
In some samples, a solution of the peptide corresponding to SEQ ID NO.8 in DI water at a concentration of 1 mg/mL was then applied to hair until the hair was saturated, and the hair was allowed to sit for 30 minutes at room temperature. In these samples, the hair was then blow dried under medium heat while gently pulling the hair into a straight shape. A flat iron was then applied to the hair at 400° F.
For all hair samples, a solution of hydrogen peroxide (2% v/v) was then applied to the hair until the hair was saturated, and the hair was allowed to sit for 30 minutes at room temperature. The hair was then rinsed with DI water.
The straightened hair was washed with shampoo and allowed to air dry, and this washing/drying procedure was repeated a total of 30 times.

With “SEQ ID NO. 14: differs from SEQ ID NO. 6 in lacking the Q13C substitution (CGQCCHLQCCFCQYKKCELFPKC)”, in assay [1], the “change in fluorescence intensity between 1 and 10 shampoos (retention of peptide in hair)” value (from here on “change”) is listed as “significant decrease”.
On to “SEQ ID NO. 5: designed keratin binding peptide with cysteine substitutions relative to SEQ ID NO: 1 (QGQCCHLQCCFSQYKKCELFPKC)”, for which the “straightening efficiency compared among the six peptides (vs SEQ ID NO. 3 and SEQ ID NO. 4)” value in assay [2] and in assay [3] was “slightly higher straightening efficiency” in each case.
For “SEQ ID NO. 16: differs from SEQ ID NO. 8 in lacking the Q13C substitution (CGQVCHLQCAFSQYKKCELFPKC)”, the “change” value in assay [1] is “significant decrease”.
Take “SEQ ID NO. 8: cysteine-substituted peptide with Q13C; SEQ ID NO. 16 is the same without Q13C (CGQVCHLQCAFSCYKKCELFPKC) [cysteine-substituted peptide with Q13C; 16 is the same without Q13C]”: the “straightening efficiency compared among the six peptides (vs SEQ ID NO. 3 and SEQ ID NO. 4)” value in assay [2] and in assay [3] was “slightly higher straightening efficiency” throughout. In addition, the “hair straightening compared to untreated samples” value in assay [4], in assay [5] and in assay [6] was “significantly straightened” each time. Besides, the “hair straightening compared to an untreated sample” value in assay [7] was “significantly straightened”. The “change” value in assay [1] is reported as “no statistically significant decrease”.
“SEQ ID NO. 11: Q13C substitution relative to SEQ ID NO. 1 plus 2 additional cysteine substitutions (QGQVQHLQCAFSCYKKCELFPK)”: in assay [1], the “change” value is given as “no statistically significant decrease”.
Consider “SEQ ID NO. 7: cysteine-substituted peptide with Q13C; SEQ ID NO. 15 is the same without Q13C (CGCCCHLCCCFCCYKKCELFPKC) [cysteine-substituted peptide with Q13C; 15 is the same without Q13C]”, for which the “straightening efficiency compared among the six peptides (vs SEQ ID NO. 3 and SEQ ID NO. 4)” value in assay [2] and in assay [3] was “slightly higher straightening efficiency” in each case. Also, the “change” value in assay [1] is listed as “no statistically significant decrease”.
With “SEQ ID NO. 6: cysteine-substituted peptide with Q13C; SEQ ID NO. 14 is the same without Q13C (CGQCCHLQCCFCCYKKCELFPKC) [cysteine-substituted peptide with Q13C; 14 is the same without Q13C]”, the “straightening efficiency compared among the six peptides (vs SEQ ID NO. 3 and SEQ ID NO. 4)” value in assay [2] and in assay [3] was “slightly higher straightening efficiency” in each case. In assay [1], the “change” value was “no statistically significant decrease”.
As for “SEQ ID NO. 4: Q13C substitution relative to SEQ ID NO. 1 plus 3 additional cysteine substitutions (QGQVCHLQCAFSCYKKCELFPK)”, the “change” value in assay [1] is recorded as “no statistically significant decrease”.
For “SEQ ID NO. 15: differs from SEQ ID NO. 7 in lacking Q13C; 10 cysteine substitutions, unique Q3C and/or Q8C (CGCCCHLCCCFCQYKKCELFPKC)”, the “change” value in assay [1] is given as “strong retention”.
